Source: patent US3955959A, “Herbicide for use in transplanted rice” (priority 1974, dated 1976)
Several values for one entry are separate records, joined by “and”; a condition that tells them apart may be missing. Equal entries are not always repeated.

Experiments:
[1] = system: Ea (Eleocharis acicularis); assay: Example 5 field test, weed control, JAAPR, Japan; type: in vivo
[2] = system: Broadleaf: Mv, Sz (Monochoria vaginalis, Sphenoclea zeylanica); assay: Example 3 field test on Dapog rice, weed control, Munoz, Philippines; type: in vivo, Monochoria vaginalis and Sphenoclea zeylanica; conditions: obs. 42 DAT
Source text: (§1) Treatments were replicated four times.

[3] = system: transplanted rice (ordinary and infant seedlings); assay: Example 5 field test, rice yield; type: in vivo; conditions: in vivo
Protocol: (§2) In the tests described in the tables below, the herbicides were formulated and used in granular form in conventional manner. […] The commercial herbicide used was a granular product having 5% active ingredient.
(§3) In the field tests of the herbicide of this invention with transplanted rice, the rice seedlings were grown in conventional manner, by seeding the rice in a typical seedbed of sandy loam to clay soil of the country wherein the test was conducted. For laboratory and greenhouse work the seedlings were obtained by seeding rice in a mixture of soil, e.g., Ray silt loam, and peat in wood flats. For purposes of testing the herbicides on younger rice seedlings (infant or Dapog) the rice was usually allowed to grow for 6-15 days before lifting for transplanting. Older (ordinary) rice plants were usually grown for a period of about 2-3 weeks, or as much as about 7 weeks before lifting. Since the period of growth is dependent upon climatic conditions, a better measure of when to transplant the rice seedling is the leaf stage of growth; for infant or Dapog rice the seedling is lifted at the 1.5-2 leaf stage of growth, and for ordinary seedlings at the 2.5-5 leaf stage. The seedlings were then transplanted to the test plots for evaluation of the herbicide for injury against weed species present with the transplanted rice. The herbicides were then applied to the growth medium of the weeds and transplant rice, either preemergent or postemergent with respect to the weeds and postemergent with respect to the transplanted rice. Application times are designated in the tables as "DAT", meaning "days after transplant". Application rates given in the tables refer to the amount of active ingredient used.
(§4) The rice seedlings were grown to the 1.7 leaf stage for infant seedlings and to the 5.5 leaf stage for ordinary seedlings. Two days after puddling the soil in which the seedlings were to be transplanted, both infant and ordinary seedlings were transplanted into plots 8.5 m^2.
(§5) The weed symbol "Obw" represents "other broadleaf weeds" of unspecified identity. Results presented in Table 5 represent the average of 2 replications.

[4] = system: weeds in upland direct-seeded rice; assay: Example 7 overall; type: in vivo; conditions: direct-seeded rice cultures
Protocol: (§6) In a further comparative study of the preemergence activity of Herbicides A and B, a variety of weeds and upland direct-seeded rice were tested under greenhouse conditions. The present invention is not concerned with the use of Herbicide A in direct-seeded rice. The primary purpose of the experimental work in this example is to compare relative herbicidal activity of Herbicides A and B against the weeds shown in Table 7; most of these weeds were not available for tests with transplanted rice. Although the relative selectivity of these herbicides in upland rice is also evident, that aspect of the tests is more or less incidental to the purpose of this example.
In this example, rice seeds and seeds of the weeds shown in Table 7 were sown in Ray silt loam soil at a depth of 0.5 inch (1.27 cm) in containers for the soil in a greenhouse. Herbicides A and B were applied to the surface of the soil at a spray volume equivalent to 20 gals/acre (187.1 liters/hectare), followed by 0.5 in (1.27 cm) of overhead irrigation. Temperature and relative humidity in the greenhouse were on the order of 85°F (29°C) and 75%, respectively. Observations were made at 21-28 days after seeding. […]

[5] = system: Grass: Ec and Ecol (Echinochloa crusgalli, Echinochloa colonum); assay: Example 4 field test on ordinary rice, weed control, Munoz, Philippines; type: in vivo; conditions: obs. 36 DAT
Source text: as §1

[6] = system: Sedges: Cd, Ci, Fl (Cyperus difformis, Cyperus iria, Fimbristylis littoralis); assay: as above; type: in vivo; conditions: obs. 36 DAT
Source text: as §1

[7] = system: Ec (Echinochloa crusgalli); assay: Example 5 field test, weed control, JAAPR, Japan; type: in vivo
[8] = system: weeds Ec, Ann. Cyp, Mv, Obw, Ea; assay: Example 5 field test, average weed control, JAAPR, Japan
Protocol: as §2, §3, §4, §5

Ce (Cyperus esculentus) = assay: Example 7 greenhouse preemergence activity; type: in vivo
Protocol: as §6
In this example, rice seeds and seeds of the weeds shown in Table 7 were sown in Ray silt loam soil at a depth of 0.5 inch (1.27 cm) in containers for the soil in a greenhouse. Herbicides A and B were applied to the surface of the soil at a spray volume equivalent to 20 gals/acre (187.1 liters/hectare), followed by 0.5 in (1.27 cm) of overhead irrigation. Temperature and relative humidity in the greenhouse were on the order of 85°F (29°C) and 75%, respectively. Observations were made at 21-28 days after seeding.
In Table 7 are shown the average rates of herbicide required to cause a growth reduction of 85% of the weeds ("GR85 "), and the average rate of herbicide required to cause a growth reduction of 15% ("GR15 ") of the rice plants (Oryza sativa, "Os", variety Bluebelle).

Ann. Cyp (Cyperus spp) = assay: Example 5 field test, weed control, JAAPR, Japan
Protocol: as §2, §3, §4, §5

[9] = system: Broadleaf: Mv, Sz (Monochoria vaginalis, Sphenoclea zeylanica); assay: Example 4 field test on ordinary rice, weed control, Munoz, Philippines; type: in vivo, Monochoria vaginalis and Sphenoclea zeylanica; conditions: obs. 36 DAT
Source text: as §1

[10] = system: Mv (Monochoria vaginalis); assay: Example 5 field test, weed control, JAAPR, Japan; type: in vivo
[11] = system: weeds in ordinary transplanted rice; assay: Example 4 field test, overall weed control; type: in vivo
Source text: as §1

[12] = 1.0 kg/ha, 15 DAT, infant seedlings
[13] = 1.0 kg/ha, 15 DAT, ordinary seedlings
[14] = .25 kg/ha, 2 DAT, infant seedlings
[15] = .25 kg/ha, 2 DAT, ordinary seedlings
[16] = .5 kg/ha, 7 DAT, infant seedlings
[17] = .5 kg/ha, 7 DAT, ordinary seedlings

For CCCCOCN(C(=O)CCl)c1c(C)cccc1C(C)(C)C [Herbicide A, n-(butoxymethyl)-6'-tert-butyl-2-chloro-o-acetotoluidide], the “% Weed Control (Ea)” value [1, 12] was 89%, the “% Weed Control (Ea)” value [1, 13] was 90% and the “% Weed Control (Ea)” value [1, 14] was 87%. The “% Weed Control (Ea)” value [1, 15] was 79%, the “% Weed Control (Ea)” value [1, 16] was 89% and the “% Weed Control (Ea)” value [1, 17] was 98%. The “% Weed control, Broadleaf (Mv,Sz)” value ([2]; 5 DAT, 1.0 kg/ha) was 100%, the “% Weed control, Broadleaf (Mv,Sz)” value ([2]; 5 DAT, 2.0 kg/ha) was 100% and the “% Weed control, Broadleaf (Mv,Sz)” value ([2]; 5 DAT, .25 kg/ha) was 100%. The “% Weed control, Broadleaf (Mv,Sz)” value ([2]; 5 DAT, .5 kg/ha) was 100%, the “% Weed control, Broadleaf (Mv,Sz)” value ([2]; 14 DAT, 1.0 kg/ha) was 60% and the “% Weed control, Broadleaf (Mv,Sz)” value ([2]; 14 DAT, 2.0 kg/ha) was 60%. The “% Weed control, Broadleaf (Mv,Sz)” value ([2]; 14 DAT, .25 kg/ha) was 0%, the “% Weed control, Broadleaf (Mv,Sz)” value ([2]; 14 DAT, .5 kg/ha) was 60% and the “Yield % of H.W.C.” value [3] was 97% and 95% and 96% and 98% and 99% and 102%. The “yields vs Herbicide B at 1.5 kg/ha 7 DAT” value [3] was “essentially the same”, the “activity vs Herbicide B in direct-seeded rice” value [4] was “significantly more active” and the “% Weed control, Grass (Ec and Ecol)” value ([5]; 5 DAT, 1.0 kg/ha) was 100%. The “% Weed control, Grass (Ec and Ecol)” value ([5]; 5 DAT, 2.0 kg/ha) was 100%, the “% Weed control, Grass (Ec and Ecol)” value ([5]; 5 DAT, .25 kg/ha) was 100% and the “% Weed control, Grass (Ec and Ecol)” value ([5]; 5 DAT, .5 kg/ha) was 100%. For the same compound, the “% Weed control, Grass (Ec and Ecol)” value ([5]; 14 DAT, 1.0 kg/ha) was 80%, the “% Weed control, Grass (Ec and Ecol)” value ([5]; 14 DAT, 2.0 kg/ha) was 80% and the “% Weed control, Grass (Ec and Ecol)” value ([5]; 14 DAT, .25 kg/ha) was 60%. The “% Weed control, Grass (Ec and Ecol)” value ([5]; 14 DAT, .5 kg/ha) was 80%, the “% Weed control, Sedges (Cd, Ci, Fl)” value ([6]; 5 DAT, 1.0 kg/ha) was 100% and the “% Weed control, Sedges (Cd, Ci, Fl)” value ([6]; 5 DAT, 2.0 kg/ha) was 100%. The “% Weed control, Sedges (Cd, Ci, Fl)” value ([6]; 5 DAT, .25 kg/ha) was 100%, the “% Weed control, Sedges (Cd, Ci, Fl)” value ([6]; 5 DAT, .5 kg/ha) was 100% and the “% Weed control, Sedges (Cd, Ci, Fl)” value ([6]; 14 DAT, 1.0 kg/ha) was 60%. The “% Weed control, Sedges (Cd, Ci, Fl)” value ([6]; 14 DAT, 2.0 kg/ha) was 60%, the “% Weed control, Sedges (Cd, Ci, Fl)” value ([6]; 14 DAT, .25 kg/ha) was 60% and the “% Weed control, Sedges (Cd, Ci, Fl)” value ([6]; 14 DAT, .5 kg/ha) was 50%. For the same compound, the “% Weed Control (Ec)” value [7, 12] was 100%, the “% Weed Control (Ec)” value [7, 13] was 100% and the “% Weed Control (Ec)” value [7, 14] was 100%. For the same compound, the “% Weed Control (Ec)” value [7, 15] was 100%, the “% Weed Control (Ec)” value [7, 16] was 100% and the “% Weed Control (Ec)” value [7, 17] was 100%. The “control of Ec in words” value ([7]; both plots, all rates) was “controlled”, the “weed control vs Herbicide B at 1.5 kg/ha 7 DAT” value ([8]; 0.25 kg/ha, 2 DAT, Ec, Ann. Cyp, Obw and average, ordinary and infant) was “equal to or superior” and the “% Weed Control, Avg.” value [8, 12] was 90%. For the same compound, the “% Weed Control, Avg.” value [8, 13] was 90%, the “% Weed Control, Avg.” value [8, 14] was 93% and the “% Weed Control, Avg.” value [8, 15] was 92%. The “% Weed Control, Avg.” value [8, 16] was 81%, the “% Weed Control, Avg.” value [8, 17] was 84% and the “fold more active than Herbicide B” value ([8]; average weed control, 7 DAT) was “at least 3 fold”. The “resistance of Ce” value (Ce (Cyperus esculentus)) was “resistant”, the “control of Ann. Cyp in words” value (Ann. Cyp (Cyperus spp); 0.25 kg/ha both plots, 1.0 kg/ha ordinary) was “controlled completely” and the “% Weed Control (Ann. Cyp)” value (Ann. Cyp (Cyperus spp); [12]) was 100%. The “% Weed Control (Ann. Cyp)” value (Ann. Cyp (Cyperus spp); [13]) was 100%, the “control of Ann. Cyp in words” value (Ann. Cyp (Cyperus spp); 1.0 kg/ha, infant seedling plots) was “controlled” and the “% Weed Control (Ann. Cyp)” value (Ann. Cyp (Cyperus spp); [14]) was 100%. The “% Weed Control (Ann. Cyp)” value (Ann. Cyp (Cyperus spp); [15]) was 100%, the “% Weed Control (Ann. Cyp)” value (Ann. Cyp (Cyperus spp); [16]) was 75% and the “% Weed Control (Ann. Cyp)” value (Ann. Cyp (Cyperus spp); [17]) was 80%. For the same compound, the “% Weed control, Broadleaf (Mv,Sz)” value ([9]; 5 DAT, 1.0 kg/ha) was 100%, the “% Weed control, Broadleaf (Mv,Sz)” value ([9]; 5 DAT, 2.0 kg/ha) was 100% and the “% Weed control, Broadleaf (Mv,Sz)” value ([9]; 5 DAT, .25 kg/ha) was 100%. The “% Weed control, Broadleaf (Mv,Sz)” value ([9]; 5 DAT, .5 kg/ha) was 100%, the “% Weed control, Broadleaf (Mv,Sz)” value ([9]; 14 DAT, 1.0 kg/ha) was 60% and the “% Weed control, Broadleaf (Mv,Sz)” value ([9]; 14 DAT, 2.0 kg/ha) was 60%. For the same compound, the “% Weed control, Broadleaf (Mv,Sz)” value ([9]; 14 DAT, .25 kg/ha) was 50%, the “% Weed control, Broadleaf (Mv,Sz)” value ([9]; 14 DAT, .5 kg/ha) was 50% and the “% Weed Control (Mv)” value [10, 12] was 67%. For the same compound, the “% Weed Control (Mv)” value [10, 13] was 62%, the “% Weed Control (Mv)” value [10, 14] was 80% and the “% Weed Control (Mv)” value [10, 15] was 80%. The “% Weed Control (Mv)” value [10, 16] was 60%, the “% Weed Control (Mv)” value [10, 17] was 62% and the “control of all weeds” value ([11]; 5 DAT) was “complete control of all weeds”. The “weed control in words” value ([11]; 14 DAT) was “dropped off” and the “weed control vs Herbicide B” value ([11]; 14 DAT) was “more weed control”.
